Data on three compounds can be found in ChEMBL document CHEMBL5727788, “Amido-benzyl sulfone and sulfoxide derivates” (2020).

One may read the pIC50 as the IC50 on a negative log10 scale, so that one unit is a factor of ten.

pIC50: −log10 of the molar value.

For this assay, the target named is Nicotinamide phosphoribosyltransferase (Homo sapiens, UniProt P43490). The assay can be described thus: Enzymatic Reaction Assay: The NAMPT enzymatic reactions were carried out in Buffer A (50 mM Hepes pH 7.5, 50 mM NaCl, 5 mM MgCl2, and 1 mM THP) in 96-well V-bottom plates. The compound titrations were performed in a separate dilution plate by serially diluting the compounds in DMSO to make a 100× stock. Buffer A (89 μL) containing 33 nM of NAMPT protein was added to 1 μL of 100× compound plate containing controls (e.g. DMSO or blank). The compound and enzyme mixture was incubated for 15 min at rt, then 10 μL of 10× substrate and co-factors in Buffer A were added to the test well to make a final concentration of 1 μM NAM, 100 μM 5-Phospho-D-ribose 1-diphosphate (PRPP), and 2.5 mM Adenosine 5′-triphosphate (ATP). The reaction was allowed to proceed for 30 min at rt, then was quenched with the addition of 11 μL of a solution of formic acid and L-Cystathionine to make a final concentration of 1% formic acid and 10 μM L-Cystathionine. Background and signal strength was determined by addition (or non-addition) of a serial dilution of NMN to a pre-quenched enzyme and cofactor mix.
Chain of Nicotinamide phosphoribosyltransferase (P43490 whole entry): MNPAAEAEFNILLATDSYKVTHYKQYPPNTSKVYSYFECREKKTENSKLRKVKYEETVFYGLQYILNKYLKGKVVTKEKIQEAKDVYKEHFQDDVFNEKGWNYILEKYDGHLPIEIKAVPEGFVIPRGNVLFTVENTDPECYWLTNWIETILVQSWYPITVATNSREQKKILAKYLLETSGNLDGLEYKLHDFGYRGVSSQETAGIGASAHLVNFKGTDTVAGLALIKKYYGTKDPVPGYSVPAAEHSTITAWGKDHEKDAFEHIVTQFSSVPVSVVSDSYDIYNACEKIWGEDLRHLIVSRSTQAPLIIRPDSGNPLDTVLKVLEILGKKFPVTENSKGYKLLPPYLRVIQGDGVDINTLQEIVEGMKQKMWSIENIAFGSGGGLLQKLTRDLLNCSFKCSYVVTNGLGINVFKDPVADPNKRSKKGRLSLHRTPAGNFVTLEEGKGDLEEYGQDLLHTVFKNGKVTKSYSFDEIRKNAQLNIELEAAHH
`CC(C)N1CCN(S(=O)(=O)c2ccc(CNC(=O)c3ccc4nccn4c3)cc2)CC1`: the negative logarithm of the IC50 (pIC50) is 7.32.
Next, `CCN1CCC([S+]([O-])c2ccc(CNC(=O)c3ccc4nccn4c3)cc2)CC1` (stereo not drawn): 7.36; `O=C(NCc1ccc(S(=O)(=O)N2CC3COCC3C2)cc1)c1cnc2[nH]ncc2c1` (mixture of isomers): 6.82.
